Data reported in US20050009889A1 (priority 2002, published 2005).
Like-named read-outs stand apart in the source and are kept apart here. Marks after values point to notes of the source that are not given here.

Legend:
Assay type in all cases: in vivo
[1] = test system: Plasmopara viticola; test: Test E: preventive control of grape downy mildew on grape seedlings
Text: (§1) General protocol for preparing test suspensions: Test compounds are first dissolved in acetone in an amount equal to 3% of the final volume and then suspended at the desired concentration (in ppm) in acetone and purified water (50/50 mix) containing 250 ppm of the surfactant Trem® 014 (polyhydric alcohol esters). The resulting test suspensions are then used in the following tests. Spraying a 200 ppm test suspension to the point of run-off on the test plants is the equivalent of a rate of 500 g/ha.
The test suspension was sprayed to the point of run-off on grape seedlings. The following day the seedlings were inoculated with a spore suspension of Plasmopara viticola (the causal agent of grape downy mildew) and incubated in a saturated atmosphere at 20° C. for 24 h, moved to a growth chamber at 20° C. for 6 days, and then incubated in a saturated atmosphere at 20° C. for 24 h, after which disease ratings were made.

[2] = test system: Phytophthora infestans
[3] = test system: Plasmopara viticola; test: Test G: curative control of grape downy mildew on grape seedlings
Text: as §1
Grape seedlings are inoculated with a spore suspension of Plasmopara viticola (the casual agent of grape downy mildew) and incubated in a saturated atmosphere at 20° C. for 24 h. The next day, test suspension is sprayed to the point of run-off and the treated plants are moved to a growth chamber at 20° C. for 6 days, and then incubated in a saturated atmosphere at 20° C. for 24 h, after which disease ratings are made.

[4] = test system: Erysiphe graminis f. sp. tritici; test: Test A: preventive control of wheat powdery mildew on wheat seedlings; settings: wheat seedlings sprayed to run-off, inoculated next day, rated after 7 days; concentration not given
Text: as §1
The test suspension was sprayed to the point of run-off on wheat seedlings. The following day the seedlings were inoculated with a spore dust of Erysiphe graminis f. sp. tritici, (the causal agent of wheat powdery mildew) and incubated in a growth chamber at 20° C. for 7 days, after which disease ratings were made.

[5] = test system: Puccinia recondita; test: Test B: preventive control of wheat leaf rust on wheat seedlings; settings: wheat seedlings sprayed to run-off, inoculated next day; concentration not given
Text: as §1
The test suspension was sprayed to the point of run-off on wheat seedlings. The following day the seedlings were inoculated with a spore suspension of Puccinia recondita (the causal agent of wheat leaf rust) and incubated in a saturated atmosphere at 20° C. for 24 h, and then moved to a growth chamber at 20° C. for 6 days, after which disease ratings were made.

[6] = test system: Phytophthora infestans; settings: tomato seedlings sprayed to run-off, inoculated next day; concentration not given
[7] = test system: grape downy mildew; test: Curative utility, in addition to the Tests of Table A; settings: especially for grape downy mildew
[8] = test system: Pyricularia oryzae; settings: rice seedlings sprayed to run-off, inoculated next day; concentration not given
[9] = curative, 100 ppm on potato seedlings
[10] = grape seedlings sprayed to run-off, inoculated next day, concentration not given
[11] = grape seedlings inoculated, sprayed next day (curative), concentration not given

| Compound | Test E disease control rating (100 = 100% disease control, 0 = no control) ([1]; grape seedlings, preventive, 100 ppm (footnote *)) | Test F disease control rating (100 = 100% disease control, 0 = no control) [2, 9] | Test G disease control rating (100 = 100% disease control, 0 = no control) ([3]; grape seedlings, curative, 20 ppm) | Test A disease control rating (100 = 100% disease control, 0 = no control) [4] [%] | Test B disease control rating (100 = 100% disease control, 0 = no control) [5] [%] | Test D disease control rating (100 = 100% disease control, 0 = no control) [6] [%] | Test E disease control rating (100 = 100% disease control, 0 = no control) [1, 10] [%] | Test G disease control rating (100 = 100% disease control, 0 = no control) [3, 11] [%] | curative utility [7] | Test C disease control rating (100 = 100% disease control, 0 = no control) [8] [%] | Test F disease control rating (100 = 100% disease control, 0 = no control) ([2]; seedlings inoculated, sprayed next day (curative), concentration not given) [%] |
| --- | --- | --- | --- | --- | --- | --- | --- | --- | --- | --- | --- |
| CC(NC(=O)c1c(Cl)ccnc1Cl)c1ncc(C(F)(F)F)cc1Cl (single isomer, unassigned; (-)) [Compound 23, (−)-2,4-Dichloro-N-[-1-[3-chloro-5-(trifluoromethyl)-2-pyridinyl]ethyl]-3-pyridinecarboxamide] | 69* % | 65# % | 0** % |  |  |  |  |  |  |  |  |
| Cc1cc(Cl)c(C(=O)NCc2ncc(C(F)(F)F)cc2Cl)c(Cl)n1 [Compound 5, 2,4-Dichloro-N-[[3-chloro-5-(trifluoromethyl)-2-pyridinyl]methyl]-6-methyl-3-pyridinecarboxamide] |  | 100# % |  | 0 | 8 | 100 | 100 | 96 | significant curative utility |  |  |
| Nc1ncccc1C(=O)NCc1ncc(C(F)(F)F)cc1Cl [Compound 6] |  |  |  | 0 | 28 | 7 | 0 | 8 |  | 0 |  |
| O=C(NCc1ncc(C(F)(F)F)cc1Cl)c1cncc(Br)c1 [Compound 7] |  |  |  | 0 | 9 | 16 | 0 | 0 |  | 74 |  |
| O=C(NCc1ncc(C(F)(F)F)cc1Cl)c1cccnc1O [Compound 8] |  |  |  | 0 | 9 | 7 | 8 | 8 |  | 0 |  |
| COc1ncccc1C(=O)NCc1ncc(C(F)(F)F)cc1Cl [Compound 9] |  |  |  | 0 | 19 | 7 | 24 | 24 |  | 0 |  |
| CCOc1ncccc1C(=O)NCc1ncc(C(F)(F)F)cc1Cl [Compound 10] |  |  |  | 0 | 9 | 3 | 23 | 23 |  | 0 |  |
| Cc1ccc(C(=O)NCc2ncc(C(F)(F)F)cc2Cl)c(Cl)n1 [Compound 11] |  |  |  | 0 | 19 | 100 | 98 | 99 |  | 90 | 0 |
| O=C(NCc1ncc(C(F)(F)F)cc1Cl)c1ccc(C(F)(F)F)nc1Br [Compound 12] |  |  |  | 0 | 9 | 32 | 0 | 0 |  | 80 |  |
| Cc1ccc(C(=O)NCc2ncc(C(F)(F)F)cc2Cl)c(O)n1 [Compound 13] |  |  |  | 0 | 9 | 7 | 8 | 8 |  | 0 |  |
| Cc1nc(C(F)(F)F)ccc1C(=O)NCc1ncc(C(F)(F)F)cc1Cl [Compound 14] |  |  |  | 0 | 28 | 25 | 8 | 8 |  | 87 |  |
| Cc1nc(C(F)(F)C(F)(F)F)ccc1C(=O)NCc1ncc(C(F)(F)F)cc1Cl [Compound 15] |  |  |  | 69 | 68 | 16 | 8 | 8 |  | 88 |  |
| COc1nc(C(F)(F)F)ccc1C(=O)NCc1ncc(C(F)(F)F)cc1Cl [Compound 16] |  |  |  | 0 | 0 | 7 | 0 | 0 |  | 0 |  |
| Cc1nc(Cl)ccc1C(=O)NCc1ncc(C(F)(F)F)cc1Cl [Compound 17] |  |  |  | 0 | 9 | 79 | 16 | 16 |  | 13 |  |
| O=C(NCc1ncc(C(F)(F)F)cc1Cl)c1ccc(C(F)(F)F)nc1 [Compound 18] |  |  |  | 0 | 32 | 25 | 0 | 0 |  | 0 |  |
